Patent publication US20230322771A1, “HETEROCYCLIC GLP-1 AGONISTS” (Gasherbrum Bio, Inc., priority 2020, published 2023)
Read-outs that look alike come from different tables or passages of the source.

Biological target: GLP-1 Receptor (Homo sapiens, UniProt P43220)
Experiment: GLP-1R agonist cAMP stimulation assay (HEK293/GLP1R/CRE-LUC cells, HTRF cAMP dynamic 2 kit)
Format: cell-based
Details: HEK293/CRE-Luc cell line (HDB) stably expressing GLP-1 Receptor, 30 min incubation at 37° C.
Method: Activation of GLP-1 receptor is known to stimulate cyclic AMP (cAMP) production in cells which indicates primary coupling to the Gαs subunit of the G protein heterotrimeric complex.
To optimize functional activity directed toward Gαs coupling, a HEK293/CRE-Luc cell line developed by HDB stably expressing the GLP-1 Receptor was used. 200× concentration of compound working solutions were prepared (Agilent Technologies Bravo) with ½ log serial dilution in 384-well Echo LDV plate (Labcyte, Cat #LP-0200). 50 nL/well 200× concentration of compound working solutions were moved to 384-well white low volume plate (Greiner, Cat #784075) using Labcyte ECHO550. 1×10^5 cells/mL HEK293/GLP1R/CRE-LUC(HD Biosciences) cell suspensions prepared with assay buffer[DPBS containing 0.5 mM IBMX(Sigma, Cat #15879) and 0.1% BSA(GENVIEW, Cat #FA016-100 g)], 10 uL cell suspensions were added to each well of previous generated assay plate which already contains 50 nl compound at 200× concentration using ThermoFisher Multidrop Combi(1000 cells/well). Seal the plate and incubate at 37° C. with 5% CO2 for 30 min.
After incubation the cAMP assay signal was generated using cAMP dynamic 2 Kit (Cisbio). 5 μL cAMP-d2 working solution was added to each well, followed with 5 μL Anti-cAMP antibody-cryptate working solution added to each well using ThermoFisher Multidrop Combi. Incubate at room temperature for 1 hour protected from light. Read the fluorescence at 665 and 615 nm with Reader PerkinElmer EnVision.
% Activity=100%×(mean RLU of test sample−mean RLU of vehicle control)/(mean RLU of MAX control−mean RLU of vehicle control))

[1] = read-out: GLP1R cAMP Stimulation DR: EC50 (nM) [Species: Human, Assay Cell Line: HDB]

Chain of GLP-1 Receptor (P43220 24-463): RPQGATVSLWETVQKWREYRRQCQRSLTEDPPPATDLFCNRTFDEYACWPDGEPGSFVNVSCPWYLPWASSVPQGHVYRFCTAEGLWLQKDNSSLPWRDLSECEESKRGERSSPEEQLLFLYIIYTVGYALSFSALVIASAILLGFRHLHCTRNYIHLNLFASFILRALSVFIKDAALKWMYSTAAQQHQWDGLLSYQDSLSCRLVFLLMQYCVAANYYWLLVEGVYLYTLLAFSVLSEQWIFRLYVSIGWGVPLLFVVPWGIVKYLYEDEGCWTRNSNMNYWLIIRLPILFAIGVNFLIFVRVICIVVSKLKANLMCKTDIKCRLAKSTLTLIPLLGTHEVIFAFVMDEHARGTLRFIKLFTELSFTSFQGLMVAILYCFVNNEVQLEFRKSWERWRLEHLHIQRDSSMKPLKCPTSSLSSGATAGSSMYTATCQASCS

| SMILES | EC50 [1] | EC50 (read-out: GLP1R cAMP Stimulation DR: pEC50 (M) [Species: Human, Assay Cell Line: HDB] (converted)) |
| --- | --- | --- |
| Cc1cc(-n2nc3c(c2-n2ccn(-c4ccc(CCS(C)(=O)=O)cc4F)c2=O)[C@H](C)N(C(=O)c2cc4cc(C5CCOCC5)ccc4n2[C@@]2(c4noc(=O)[nH]4)C[C@@H]2C)CC3)cc(C)c1F [Compound 110a, 3-((1S,2S)-1-(2-((S)-2-(4-fluoro-3,5-dimethylphenyl)-3-(3-(2-fluoro-4-(2-(methylsulfonyl)ethyl)phenyl)-2-oxo-2,3-dihydro-1H-imidazol-1-yl)-4-methyl-4,5,6,7-tetrahydro-2H-pyrazolo[4,3-c]pyridine-5-carbonyl)-5-(tetrahydro-2H-pyran-4-yl)-1H-indol-1-yl)-2-methylcyclopropyl)-1,2,4-oxadiazol-5(4H)-one] | 0.05 nM |  |
| Cc1cc(-n2nc3c(c2-n2ccn(-c4ccc(S(=O)(=O)C5CC5)cc4)c2=O)[C@H](C)N(C(=O)c2cc4cc(C5CCOCC5)ccc4n2[C@@]2(c4noc(=O)[nH]4)C[C@@H]2C)CC3)cc(C)c1F [Compound 108a, 3-((1S,2S)-1-(2-((S)-3-(3-(4-(cyclopropylsulfonyl)phenyl)-2-oxo-2,3-dihydro-1H-imidazol-1-yl)-2-(4-fluoro-3,5-dimethylphenyl)-4-methyl-4,5,6,7-tetrahydro-2H-pyrazolo[4,3-c]pyridine-5-carbonyl)-5-(tetrahydro-2H-pyran-4-yl)-1H-indol-1-yl)-2-methylcyclopropyl)-1,2,4-oxadiazol-5(4H)-one] | 0.043 nM |  |
| Cc1cc(-n2nc3c(c2-n2ccn(-c4ccc(CS(C)(=O)=O)cc4)c2=O)[C@H](C)N(C(=O)c2cc4cc(C5CCOCC5)ccc4n2[C@@]2(c4noc(=O)[nH]4)C[C@@H]2C)CC3)cc(C)c1F [Compound 101a, 3-((1S,2S)-1-(2-((S)-2-(4-fluoro-3,5-dimethylphenyl)-4-methyl-3-(3-(4-((methylsulfonyl)methyl)phenyl)-2-oxo-2,3-dihydro-1H-imidazol-1-yl)-4,5,6,7-tetrahydro-2H-pyrazolo[4,3-c]pyridine-5-carbonyl)-5-(tetrahydro-2H-pyran-4-yl)-1H-indol-1-yl)-2-methylcyclopropyl)-1,2,4-oxadiazol-5(4H)-one] |  | 0.0316 nM |
